These results are taken from patent US20240182465A1 (GENFLEET THERAPEUTICS (SHANGHAI) INC., priority 2021, published 2024).

The IC50 is the concentration that gives 50% inhibition. High values mean lower potency, low ones higher potency.

Assay [1] addresses T1, HPK1 (Homo sapiens, UniProt Q92918).
T1 sequence (Q92918 1-346 limits assumed): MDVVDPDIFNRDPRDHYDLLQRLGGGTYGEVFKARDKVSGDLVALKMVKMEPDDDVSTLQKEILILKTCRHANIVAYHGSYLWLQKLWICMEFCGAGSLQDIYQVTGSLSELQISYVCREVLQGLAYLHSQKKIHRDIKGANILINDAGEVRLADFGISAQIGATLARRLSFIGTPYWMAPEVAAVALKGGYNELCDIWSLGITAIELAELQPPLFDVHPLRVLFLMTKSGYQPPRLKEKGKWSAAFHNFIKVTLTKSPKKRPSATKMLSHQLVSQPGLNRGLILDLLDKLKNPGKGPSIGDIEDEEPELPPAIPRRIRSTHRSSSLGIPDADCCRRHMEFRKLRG
Put plainly: HPK1 kinase activity assay (ADP-Glo). The note with it: HPK1 Kinase activity IC50 (nM), 1 nM HPK1, 10 μM ATP, 0.1 μg/μL MBP. (ADP-Glo turns the ADP formed in a reaction into a luminescent signal.)

The target of assay [2] is HPK1 (Homo sapiens, UniProt Q92918). Put plainly: SLP76 phosphorylation assay (intracellular HPK1 inhibitory activity, p-SLP76 Ser376 sandwich ELISA). The note with it: p-SLP76 IC50(nM), Jurkat, Clone E6-1 cells; 1 h compound pre-incubation, anti-CD3 beads stimulation 20 min; SLP76 phosphorylation at S376. A general note: An ELISA detects its analyte on a solid surface through an enzyme-linked reagent.
Target sequence in this assay (Q92918 whole entry): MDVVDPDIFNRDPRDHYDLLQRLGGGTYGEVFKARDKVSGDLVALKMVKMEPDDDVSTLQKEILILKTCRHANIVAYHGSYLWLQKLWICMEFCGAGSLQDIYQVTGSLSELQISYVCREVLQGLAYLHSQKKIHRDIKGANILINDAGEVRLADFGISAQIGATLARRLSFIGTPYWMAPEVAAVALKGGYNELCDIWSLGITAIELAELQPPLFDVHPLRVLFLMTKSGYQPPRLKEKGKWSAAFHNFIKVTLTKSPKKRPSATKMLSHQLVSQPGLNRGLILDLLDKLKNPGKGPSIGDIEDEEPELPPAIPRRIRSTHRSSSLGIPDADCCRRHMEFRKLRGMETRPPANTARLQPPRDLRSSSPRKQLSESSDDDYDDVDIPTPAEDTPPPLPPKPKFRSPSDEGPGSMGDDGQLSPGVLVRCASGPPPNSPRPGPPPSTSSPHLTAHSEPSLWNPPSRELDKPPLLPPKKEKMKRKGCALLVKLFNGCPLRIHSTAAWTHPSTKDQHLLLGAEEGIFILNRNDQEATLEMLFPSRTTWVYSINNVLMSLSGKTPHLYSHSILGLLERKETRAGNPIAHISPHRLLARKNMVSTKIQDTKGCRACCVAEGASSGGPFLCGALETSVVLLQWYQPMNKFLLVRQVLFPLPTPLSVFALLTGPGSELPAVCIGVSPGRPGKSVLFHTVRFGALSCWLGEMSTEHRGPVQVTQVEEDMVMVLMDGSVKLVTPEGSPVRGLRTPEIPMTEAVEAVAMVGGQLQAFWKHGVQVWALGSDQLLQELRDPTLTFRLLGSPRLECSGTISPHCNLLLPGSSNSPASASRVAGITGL
Protocol: Intracellular HPK1 inhibitory activity was tested by the detection of SLP76 phosphorylation at S376.
Preparation of 1000× drug stock plate: a 1000× compound stock plate was prepared. […] The compound stock plate was sealed with a sealing film and stored in a −20° C. refrigerator for later use.
Preparation of Beads wash buffer: 0.1 mL FBS and 0.4 mL 0.5 M EDTA (with a final concentration of 2 mM) were added to 100 mL PBS and stored in a 4° C. refrigerator for later use.
100× Protease Inhibitor Cocktail in 1/20 total volume was added and stored on wet ice for later use. The buffer was ready to use.
Cell inoculation and dosing: the 1000× drug stock plate was taken and melted at room temperature in the dark. […] Jurkat cells in the logarithmic growth phase were selected and collected. […] The cells were inoculated into a 96-well plate (the volume was 90 μL per well), and a blank control well (without cells inoculation, and in which 110 μL of medium was added) was set. 10 μL of a drug-containing culture medium (10×) was transferred from the 10× drug intermediate plate into the 96-well cell plate (with a final concentration of 0.1% DMSO), and set a DMSO control group (in which 0.1% DMSO was added to the treated cells), a stimulated control group (in which 10 μL of culture medium was added to treat cells) and an unstimulated group (in which 10 μL of culture medium was added to treat cells). The wells were duplicated, gently patted, mixed, and then placed into a 5% CO2 incubator at 37° C. for 1 h.
Anti-CD3 beads stimulation: Dynabeads anti-human CD3 was taken, shaken, and mixed for 60 s. The required volume of beads was pipetted, and an equal volume or at least 1 mL of washing solution was added to wash once. Fresh complete medium was then added to resuspend and adjust the density of the beads to 4×10^7/mL, and the beads were placed on ice for later use. At the end of drug pre-incubation, the cell culture plate was taken out. 10 μL Dynabeads anti-human CD3 was added to each well to treat the cells, and 10 μL the culture medium was added to the unstimulated group. The cell culture plate was shaken to mix well at 2500 rpm for 10 s, and then placed into a 5% CO2 incubator at 37° C. and continued to culture for 20 min.
Detection of p-SLP76 protein level. PathScan Phospho-SLP-76 (Ser376) Sandwich ELISA Kit was applied to detect p-SLP76 protein level. At the end of the Anti-CD3 beads stimulation, the cell culture plate was removed from the incubator. […] After lysis, the cell culture plate was centrifuged at 4° C., 400×g for 5 min. 25 μL of sample and 75 μL of sample diluent were added to each well, and the plate was placed in a 5% CO2 incubator at 37° C. for 2 h. The subsequent detection steps were carried out following the kit instructions, and the absorbance (OD value) of each well was read at 450 nm by a microplate reader.

Structures can show the parent of a compound that is named as a salt. Bounds are passed on as bounds.

Consider `N#CC1(c2c[nH]c3ncc(-c4cc5c(c([C@@H]6CCCN6)c4)COCC5)cc23)CC1` [Compound Z137, (S)-1-(5-(8-(pyrrolidin-2-yl)isochroman-6-yl)-1H-pyrrolo[2,3-b]pyridin-3-yl)cyclopropane-1-carbonitrile], for which the IC50 against HPK1 [1] stood at 0.37 nM; against HPK1 [2], 159 nM. The corresponding values for `Nc1ncc(-c2cc3c(c(C4CCCN4)c2)COCC3)cc1-c1cn[nH]c1` (stereo not shown) [Compound Z93, 3-(1H-pyrazol-4-yl)-5-(8-(pyrrolidin-2-yl)isochroman-6-yl)pyridin-2-amine formate] are 1.62 nM and 439 nM. On the same counts, the results for `Cc1c[nH]c2ncc(-c3cc4c(c([C@@H]5CCCN5)c3)CCN(S(C)(=O)=O)C4)cc12` [Compound Z88-1, (S)-7-(3-methyl-1H-pyrrolo[2,3-b]pyridin-5-yl)-2-(methylsulfonyl)-5-(pyrrolidin-2-yl)-1,2,3,4-tetrahydroisoquinoline] are 0.38 nM and 91.3 nM.

As to `Cc1ccc(C(=O)N2CCc3cc(-c4cnc5[nH]cc(C)c5c4)cc([C@@H]4CCCN4)c3C2)cn1` [Compound Z441, (S)-(6-(3-methyl-1H-pyrrolo[2,3-b]pyridin-5-yl)-8-(pyrrolidin-2-yl)-3,4-dihydroisoquinolin-2(1H)-yl) (6-methylpyridin-3-yl)methanone], the IC50 against HPK1 [1] came to 0.52 nM; against HPK1 [2] it was 197 nM. On the same counts, the results for `Cc1c[nH]c2ncc(-c3cc4c(c([C@@H]5CCCN5)c3)CN(CC(F)(F)F)CC4)cc12` [Compound Z131, (S)-6-(3-methyl-1H-pyrrolo[2,3-b]pyridin-5-yl)-8-(pyrrolidin-2-yl)-2-(2,2,2-trifluoroethyl)-1,2,3,4-tetrahydroisoquinoline] are 7.54 nM and 664 nM. On the same counts, the results for `Cc1c[nH]c2ncc(-c3cc4c(c([C@@H]5CCCN5)c3)CN(C(=O)[C@H](O)c3ccccc3)CC4)cc12` [Compound Z289, (R)-2-hydroxy-1-(6-(3-methyl-1H-pyrrolo[2,3-b]pyridin-5-yl)-8-((S)-pyrrolidin-2-yl)-3,4-dihydroisoquinolin-2(1H)-yl)-2-acetophenone] are 1.35 nM and 378 nM. With `COC(=O)N1CCc2cc(-c3cnc4[nH]cc(C)c4c3)cc([C@@H]3CCCN3)c2C1` [Compound Z34-1], the IC50 at HPK1 [1] was determined as 0.55 nM; against HPK1 [2], 265 nM. For the compound `Cc1c[nH]c2ncc(-c3cc4c(c([C@@H]5CCCN5)c3)CN(C(=O)NC3CC3)CC4)cc12` [Compound Z250, (S)—N-cyclopropyl-6-(3-methyl-1H-pyrrolo[2,3-b]pyridin-5-yl)-8-(pyrrolidin-2-yl)-3,4-dihydroisoquinoline-2(1H)-carboxamide], the figures for the IC50 on HPK1 [1] and at HPK1 [2] were 0.42 nM and 193 nM, respectively.

For the compound `Nc1ncc(-c2cc3c(c([C@H]4CCCN4)c2)COCC3)cc1-c1cn[nH]c1` (single isomer, unassigned) [Compound Z93-1], 163 nM corresponded to half-maximal inhibition at HPK1 [1] (IC50). In the case of `Cc1c[nH]c2ncc(-c3cc([C@H]4CCCN4)c4cnccc4c3)cc12` (single isomer, unassigned) [Compound Z3-2], the IC50 was determined as 3.37 nM at HPK1 [1] and 604 nM on HPK1 [2]. For the compound `Cc1ncncc1C(=O)N1CCc2cc(-c3cnc4[nH]cc(C)c4c3)cc([C@@H]3CCCN3)c2C1` [Compound Z283, (S)-(6-(3-methyl-1H-pyrrolo[2,3-b]pyridin-5-yl)-8-(pyrrolidin-2-yl)-3,4-dihydroisoquinolin-2(1H)-yl) (4-methylpyrimidin-5-yl)methanone], the IC50 was found to be 0.3 nM on HPK1 [1] and 286 nM on HPK1 [2]. On the same counts, the results for `Cc1c[nH]c2ncc(-c3cc4c(c([C@@H]5CCCN5)c3)CCN(C(=O)C(C)(C)C)C4)cc12` [Compound Z300, (S)-2,2-dimethyl-1-(7-(3-methyl-1H-pyrrolo[2,3-b]pyridin-5-yl)-5-(pyrrolidin-2-yl)-3,4-dihydroisoquinolin-2(1H)-yl)propan-1-one] are 0.64 nM and 274 nM.

Compound `CC(C)c1c[nH]c2ncc(-c3cc([C@H]4CCCN4)c4cnccc4c3)cc12` (single isomer, unassigned) [Compound Z95-1] yielded an IC50 against HPK1 [1] of 18.4 nM. Same read-out and setting: the result for `Cc1c[nH]c2ncc(-c3cc4c(c(CN5CCOCC5)c3)COCC4)cc12` [Compound Z115, 4-((6-(3-methyl-1H-pyrrolo[2,3-b]pyridin-5-yl)isochroman-8-yl)methyl)morpholine] reads 257 nM; that for `CC(=O)N1CCc2cc(-c3cnc4[nH]cc(C)c4c3)cc([C@H]3CCCN3)c2C1` (single isomer, unassigned) [Compound Z98-1], 49.4 nM. For the compound `Cc1c[nH]c2ncc(-c3cc4c(c([C@@H]5COCCN5)c3)CN(C(=O)[C@](C)(O)C(F)(F)F)CC4)cc12` (single isomer, unassigned) [Compound Z309-1], the IC50 against HPK1 [1] was determined as 0.58 nM. In the case of `N#CCc1c[nH]c2ncc(-c3cc4c(c([C@H]5CCCN5)c3)COCC4)cc12` (single isomer, unassigned) [Compound Z101-1], at HPK1 [1], the IC50 was 42.7 nM. This IC50 lies about 74-fold higher than the previous one.

With `Cc1c[nH]c2ncc(-c3cc4c(c([C@@H]5CC6(CC6)CN5)c3)COCC4)cc12` [Compound Z240], the IC50 on HPK1 [1] is 2.28 nM. On the same count and under the same terms, the result for `CNC(c1ccccc1)c1cc(-c2cnc3[nH]cc(C)c3c2)cc2c1COCC2` (single isomer, unassigned) [Compound Z234-2] reads above 1000 nM. At HPK1 [2], `Nc1ncc(-c2cc3c(c([C@@H]4CCCN4)c2)COCC3)cc1-c1nncs1` [Compound Z239, 5-[8-[(S)-pyrrolidin-2-yl]isochroman-6-yl]-3-(1,3,4-thiadiazol-2-yl)pyridin-2-amine] yielded an IC50 of 239 nM. That is a sub-micromolar value. The same measure, in the same setting: the result for `Cc1c[nH]c2ncc(-c3cc4c(c([C@@H]5CCCN5)c3)CN(C(=O)N3C5CCC3COC5)CC4)cc12` [Compound Z388, (3-oxa-8-azabicyclo[3.2.1]octan-8-yl)(6-(3-methyl-1H-pyrrolo[2,3-b]pyridin-5-yl)-8-((S)-pyrrolidin-2-yl)-3,4-dihydroisoquinolin-2(1H)-yl)methanone] reads 43.1 nM; that for `Cc1c[nH]c2ncc(-c3cc4c(c([C@@H]5CCCN5)c3)CN(C(=O)c3cnn(CCO)c3)CC4)cc12` [Compound Z281, (S)-(1-(2-hydroxyethyl)-1H-pyrazol-4-yl)(6-(3-methyl-1H-pyrrolo[2,3-b]pyridin-5-yl)-8-(pyrrolidin-2-yl)-3,4-dihydroisoquinolin-2(1H)-yl)methanone], 2030 nM. At HPK1 [1], `CC(=O)N1CCc2cc(-c3cnc4[nH]cc(C)c4c3)cc([C@H]3COCCN3)c2C1` (single isomer, unassigned) [Compound Z119-2] yielded an IC50 of 90 nM.

With `Cc1c[nH]c2ncc(-c3cc4c(c(N5CCC[C@@H]5CO)c3)COCC4)cc12` [Compound Z116-1, (R)-(1-(6-(3-methyl-1H-pyrrolo[2,3-b]pyridin-5-yl)isochroman-8-yl)pyrrolidin-2-yl)methanol], on HPK1 [1], the IC50 is 843 nM. The same measure, in the same setting: with `Cc1c[nH]c2ncc(-c3cc4c(c([C@H]5CCCN5)c3)COCC4)cc12` (single isomer, unassigned) [Compound Z97-1] the figure was 120 nM. Regarding `Cc1c[nH]c2ncc(-c3cc4c(c([C@@H]5CCCN5)c3)CN(c3ccccn3)CC4)cc12` [Compound Z128, (S)-6-(3-methyl-1H-pyrrolo[2,3-b]pyridin-5-yl)-2-(pyridin-2-yl)-8-(pyrrolidin-2-yl)-1,2,3,4-tetrahydroisoquinoline], at HPK1 [1], the IC50 worked out at 168 nM. The IC50 values of the last two compounds are within 1.5-fold of each other. Same read-out and setting: the result for `Cc1c[nH]c2ncc(-c3cc4c(c(N5CCC[C@H]5CO)c3)COCC4)cc12` [Compound Z116-2, (S)-(1-(6-(3-methyl-1H-pyrrolo[2,3-b]pyridin-5-yl)isochroman-8-yl)pyrrolidin-2-yl)methanol] reads above 1000 nM. In turn, `Cc1c[nH]c2ncc(-c3cc4c(c(C5CC6(CC6)CN5)c3)COCC4)cc12` (stereo not shown) [Compound Z240-1, 5-(8-(5-azaspiro[2.4]heptan-6-yl)isochroman-6-yl)-3-methyl-1H-pyrrolo[2,3-b]pyridine] came in with an IC50 on HPK1 [2] of 770 nM. This counts as sub-micromolar. Still for that read-out and setting: the result for `Cc1cn(C2CC2)nc1C(=O)N1CCc2cc(-c3cnc4[nH]cc(C)c4c3)cc([C@@H]3CCCN3)c2C1` [Compound Z342, (S)-(1-cyclopropyl-4-methyl-1H-pyrazol-3-yl)-[6-(3-methyl-1H-pyrrolo[2,3-b]pyridin-5-yl)-8-[pyrrolidin-2-yl]-3,4-dihydro-2(1H)-isoquinolin-yl]methanone] reads 271 nM. In turn, `CNC(c1ccccc1)c1cc(-c2cnc3[nH]cc(C)c3c2)cc2c1COCC2` (single isomer, unassigned) [Compound Z234-1] returned an IC50 at HPK1 [1] of 154 nM. For `Cc1cn(C2CC2)nc1C(=O)N1CCc2cc(-c3cnc4[nH]cc(C)c4c3)cc([C@@H]3CCCN3)c2C1` [Compound Z347, (S)-(1-cyclopropyl-4-methyl-1H-pyrazol-3-yl)-[6-(3-methyl-1H-pyrrolo[2,3-b]pyridin-5-yl)-8-[pyrrolidin-2-yl]-3,4-dihydro-1H-isoquinolin-2-yl]methanone], on HPK1 [2], the IC50 was 319 nM. At HPK1 [2], `Cc1c[nH]c2ncc(-c3cc4c(c([C@@H]5CCCN5)c3)CN(C(=O)Nc3cn[nH]c3)C4)cc12` [Compound Z385] registered an IC50 of 3.3 nM.
